How the values were obtained:
[1] = test system: Receptor-type tyrosine-protein kinase FLT3 (Homo sapiens), P36888 [D835V]
[2] = biological target: Receptor-interacting serine/threonine-protein kinase 1 (Homo sapiens) (UniProt Q13546)
[3] = biological target: Megakaryocyte-associated tyrosine-protein kinase (Homo sapiens) (UniProt P42679)
[4] = biological target: Fibroblast growth factor receptor 1 (Homo sapiens) (UniProt P11362)
[5] = biological target: Cyclin-dependent kinase 3 (Homo sapiens) (UniProt Q00526)
Chain of Cyclin-dependent kinase 3 (Homo sapiens) (Q00526 whole entry, looked up): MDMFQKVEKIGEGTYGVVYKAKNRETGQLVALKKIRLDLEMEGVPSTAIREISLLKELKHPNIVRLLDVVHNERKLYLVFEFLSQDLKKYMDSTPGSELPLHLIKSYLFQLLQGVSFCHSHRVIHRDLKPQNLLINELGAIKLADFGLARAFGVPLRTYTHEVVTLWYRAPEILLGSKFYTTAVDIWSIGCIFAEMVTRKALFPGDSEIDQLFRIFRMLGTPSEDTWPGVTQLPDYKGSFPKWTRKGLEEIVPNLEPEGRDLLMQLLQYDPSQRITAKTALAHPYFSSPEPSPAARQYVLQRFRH

[6] = biological target: Tyrosine-protein kinase Srms (Homo sapiens) (UniProt Q9H3Y6)
[7] = biological target: Receptor tyrosine-protein kinase erbB-3 (Homo sapiens) (UniProt P21860)
[8] = biological target: Mitogen-activated protein kinase 11 (Homo sapiens) (UniProt Q15759)
[9] = biological target: Serine/threonine-protein kinase Nek7 (Homo sapiens) (UniProt Q8TDX7)
[10] = biological target: Interleukin-1 receptor-associated kinase 1 (Homo sapiens) (UniProt P51617)
Chain of Interleukin-1 receptor-associated kinase 1 (Homo sapiens) (P51617 whole entry, looked up): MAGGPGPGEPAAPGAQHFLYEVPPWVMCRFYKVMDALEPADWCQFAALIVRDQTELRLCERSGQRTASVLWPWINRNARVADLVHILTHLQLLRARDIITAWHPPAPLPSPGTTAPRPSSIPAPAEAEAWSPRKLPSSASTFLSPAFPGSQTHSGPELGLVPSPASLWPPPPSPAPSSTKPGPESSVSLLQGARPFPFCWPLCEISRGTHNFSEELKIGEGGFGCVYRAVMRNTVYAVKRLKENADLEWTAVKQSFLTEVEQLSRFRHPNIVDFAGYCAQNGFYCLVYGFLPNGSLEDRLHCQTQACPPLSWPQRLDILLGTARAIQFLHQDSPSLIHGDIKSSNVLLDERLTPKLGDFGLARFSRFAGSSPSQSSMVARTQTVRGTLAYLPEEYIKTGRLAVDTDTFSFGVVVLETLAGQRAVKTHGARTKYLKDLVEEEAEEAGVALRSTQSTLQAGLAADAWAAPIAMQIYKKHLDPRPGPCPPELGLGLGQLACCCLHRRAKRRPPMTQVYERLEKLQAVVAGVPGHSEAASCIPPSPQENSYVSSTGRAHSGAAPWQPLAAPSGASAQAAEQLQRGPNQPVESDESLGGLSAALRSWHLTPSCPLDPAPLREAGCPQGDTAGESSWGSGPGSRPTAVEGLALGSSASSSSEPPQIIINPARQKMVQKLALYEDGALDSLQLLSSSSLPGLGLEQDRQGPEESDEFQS

[11] = biological target: Proto-oncogene tyrosine-protein kinase Src (Homo sapiens) (UniProt P12931)
[12] = biological target: Serine/threonine-protein kinase N2 (Homo sapiens) (UniProt Q16513)
[13] = biological target: Tyrosine-protein kinase SYK (Homo sapiens) (UniProt P43405)
[14] = biological target: Insulin receptor-related protein (Homo sapiens) (UniProt P14616)
[15] = biological target: Dual specificity mitogen-activated protein kinase kinase 5 (Homo sapiens) (UniProt Q13163)
[16] = biological target: Rho-associated protein kinase 1 (Homo sapiens) (UniProt Q13464)
[17] = biological target: Serine/threonine-protein kinase BRSK1 (Homo sapiens) (UniProt Q8TDC3)
[18] = biological target: Muscle, skeletal receptor tyrosine-protein kinase (Homo sapiens) (UniProt O15146)
[19] = biological target: NUAK family SNF1-like kinase 1 (Homo sapiens) (UniProt O60285)
[20] = biological target: Serine/threonine-protein kinase BRSK2 (Homo sapiens) (UniProt Q8IWQ3)
[21] = biological target: Phosphatidylinositol 4-phosphate 3-kinase C2 domain-containing subunit beta (Homo sapiens) (UniProt O00750)
[22] = biological target: Phosphatidylinositol 4,5-bisphosphate 3-kinase catalytic subunit alpha isoform (Homo sapiens) (UniProt P42336)
Chain of Phosphatidylinositol 4,5-bisphosphate 3-kinase catalytic subunit alpha isoform (Homo sapiens) (P42336 whole entry, canonical isoform): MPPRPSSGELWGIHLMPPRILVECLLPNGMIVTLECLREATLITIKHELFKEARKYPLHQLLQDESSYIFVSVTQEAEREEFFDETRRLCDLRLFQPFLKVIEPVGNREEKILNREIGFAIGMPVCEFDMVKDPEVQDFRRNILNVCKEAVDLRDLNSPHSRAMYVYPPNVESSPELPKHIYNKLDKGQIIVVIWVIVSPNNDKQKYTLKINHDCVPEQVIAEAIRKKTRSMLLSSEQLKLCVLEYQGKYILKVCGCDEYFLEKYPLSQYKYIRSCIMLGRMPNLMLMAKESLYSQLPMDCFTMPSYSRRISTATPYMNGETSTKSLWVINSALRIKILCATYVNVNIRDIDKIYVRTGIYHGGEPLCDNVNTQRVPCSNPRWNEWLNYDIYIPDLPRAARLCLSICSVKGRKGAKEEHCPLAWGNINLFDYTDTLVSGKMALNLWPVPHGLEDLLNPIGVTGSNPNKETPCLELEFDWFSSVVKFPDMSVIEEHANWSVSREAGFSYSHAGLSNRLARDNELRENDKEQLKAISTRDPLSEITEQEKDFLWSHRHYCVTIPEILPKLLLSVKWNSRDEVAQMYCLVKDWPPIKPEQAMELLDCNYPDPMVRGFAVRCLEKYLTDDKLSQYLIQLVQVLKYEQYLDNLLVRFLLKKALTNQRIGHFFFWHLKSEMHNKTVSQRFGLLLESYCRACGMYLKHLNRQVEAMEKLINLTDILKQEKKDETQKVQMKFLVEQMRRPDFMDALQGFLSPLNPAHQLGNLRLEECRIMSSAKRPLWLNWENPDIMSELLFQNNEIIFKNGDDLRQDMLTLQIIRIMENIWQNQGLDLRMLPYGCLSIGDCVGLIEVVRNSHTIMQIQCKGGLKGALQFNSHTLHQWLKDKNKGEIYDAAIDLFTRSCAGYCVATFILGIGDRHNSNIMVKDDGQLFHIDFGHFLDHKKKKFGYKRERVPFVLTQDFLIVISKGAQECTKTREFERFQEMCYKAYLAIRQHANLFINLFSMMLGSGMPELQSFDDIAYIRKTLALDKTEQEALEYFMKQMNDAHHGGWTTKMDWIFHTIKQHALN

[23] = biological target: Serine/threonine-protein kinase Nek1 (Homo sapiens) (UniProt Q96PY6)
[24] = test system: Tyrosine-protein kinase ABL1 (Homo sapiens), P00519 [H396P]
[25] = biological target: Serine/threonine-protein kinase MAK (Homo sapiens) (UniProt P20794)
Chain of Serine/threonine-protein kinase MAK (Homo sapiens) (P20794 whole entry): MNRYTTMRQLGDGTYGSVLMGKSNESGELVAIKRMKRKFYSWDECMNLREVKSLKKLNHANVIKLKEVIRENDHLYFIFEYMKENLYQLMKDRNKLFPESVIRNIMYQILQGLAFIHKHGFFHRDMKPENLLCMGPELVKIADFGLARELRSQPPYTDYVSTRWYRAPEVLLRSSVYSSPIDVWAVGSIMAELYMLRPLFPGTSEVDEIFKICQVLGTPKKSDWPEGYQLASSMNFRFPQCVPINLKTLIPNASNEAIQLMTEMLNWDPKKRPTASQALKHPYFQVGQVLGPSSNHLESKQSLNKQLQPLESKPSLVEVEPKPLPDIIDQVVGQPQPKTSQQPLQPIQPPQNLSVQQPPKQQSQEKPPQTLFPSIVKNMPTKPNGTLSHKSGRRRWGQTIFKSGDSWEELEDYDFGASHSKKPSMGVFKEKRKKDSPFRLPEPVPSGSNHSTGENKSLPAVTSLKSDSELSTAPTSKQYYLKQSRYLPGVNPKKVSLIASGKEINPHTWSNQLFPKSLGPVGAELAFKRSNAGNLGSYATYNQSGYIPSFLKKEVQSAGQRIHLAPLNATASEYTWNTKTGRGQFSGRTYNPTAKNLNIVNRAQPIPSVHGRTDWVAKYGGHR

[26] = biological target: Serine/threonine-protein kinase TNNI3K (Homo sapiens) (UniProt Q59H18)
[27] = biological target: Mitogen-activated protein kinase kinase kinase 10 (Homo sapiens) (UniProt Q02779)
[28] = biological target: Vascular endothelial growth factor receptor 2 (Homo sapiens) (UniProt P35968)
Chain of Vascular endothelial growth factor receptor 2 (Homo sapiens) (P35968 whole entry): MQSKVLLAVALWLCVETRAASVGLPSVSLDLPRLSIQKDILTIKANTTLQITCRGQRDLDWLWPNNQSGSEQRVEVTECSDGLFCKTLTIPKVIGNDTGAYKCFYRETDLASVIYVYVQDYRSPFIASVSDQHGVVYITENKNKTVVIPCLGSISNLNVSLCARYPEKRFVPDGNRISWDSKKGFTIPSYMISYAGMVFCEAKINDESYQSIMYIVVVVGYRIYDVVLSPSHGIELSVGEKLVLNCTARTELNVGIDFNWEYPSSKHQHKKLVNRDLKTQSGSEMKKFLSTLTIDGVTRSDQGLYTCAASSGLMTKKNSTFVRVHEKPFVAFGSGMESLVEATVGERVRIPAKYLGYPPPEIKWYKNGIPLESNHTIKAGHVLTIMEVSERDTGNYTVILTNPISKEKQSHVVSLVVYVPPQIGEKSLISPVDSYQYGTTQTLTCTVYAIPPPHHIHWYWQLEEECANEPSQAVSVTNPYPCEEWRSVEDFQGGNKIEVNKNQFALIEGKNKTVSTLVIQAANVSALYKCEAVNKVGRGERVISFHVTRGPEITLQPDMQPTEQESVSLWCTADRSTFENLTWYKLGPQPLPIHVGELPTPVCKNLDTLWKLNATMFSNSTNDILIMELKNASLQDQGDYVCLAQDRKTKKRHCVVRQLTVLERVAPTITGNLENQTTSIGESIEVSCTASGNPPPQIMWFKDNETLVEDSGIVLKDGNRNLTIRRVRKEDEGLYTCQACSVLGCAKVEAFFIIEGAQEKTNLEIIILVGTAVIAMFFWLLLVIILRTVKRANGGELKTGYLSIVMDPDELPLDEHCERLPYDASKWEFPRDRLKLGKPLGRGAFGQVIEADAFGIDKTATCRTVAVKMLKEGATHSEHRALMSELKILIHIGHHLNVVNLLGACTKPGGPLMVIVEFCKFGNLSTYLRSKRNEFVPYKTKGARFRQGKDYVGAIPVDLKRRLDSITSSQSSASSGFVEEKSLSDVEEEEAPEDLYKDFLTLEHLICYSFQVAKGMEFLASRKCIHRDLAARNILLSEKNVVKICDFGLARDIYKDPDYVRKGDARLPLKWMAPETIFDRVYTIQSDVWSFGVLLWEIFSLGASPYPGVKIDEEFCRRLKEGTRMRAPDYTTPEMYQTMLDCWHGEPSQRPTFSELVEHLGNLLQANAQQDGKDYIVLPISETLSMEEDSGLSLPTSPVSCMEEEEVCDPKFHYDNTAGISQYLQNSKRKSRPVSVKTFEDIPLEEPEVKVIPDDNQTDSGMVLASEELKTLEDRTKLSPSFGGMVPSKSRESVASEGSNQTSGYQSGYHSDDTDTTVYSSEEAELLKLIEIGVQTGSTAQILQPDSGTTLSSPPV

[29] = biological target: Tyrosine-protein kinase JAK2 (Homo sapiens) (UniProt O60674)
[30] = biological target: Cyclin-dependent kinase 17 (Homo sapiens) (UniProt Q00537)
[31] = biological target: Ribosomal protein S6 kinase alpha-4 (Homo sapiens) (UniProt O75676)
[32] = biological target: Mitogen-activated protein kinase kinase kinase kinase 2 (Homo sapiens) (UniProt Q12851)
[33] = test system: Tyrosine-protein kinase ABL1 (Homo sapiens), P00519 [M351T]
[34] = biological target: Tyrosine-protein kinase ABL1 (Homo sapiens) (UniProt P00519)
[35] = biological target: Ephrin type-B receptor 4 (Homo sapiens) (UniProt P54760)
[36] = biological target: Serine/threonine-protein kinase haspin (Homo sapiens) (UniProt Q8TF76)
[37] = biological target: Serine/threonine-protein kinase Nek9 (Homo sapiens) (UniProt Q8TD19)
[38] = biological target: Alpha-1A adrenergic receptor (Homo sapiens) (UniProt P35348); conditions: Compound concentration 10.0 uM
[39] = biological target: Tyrosine-protein kinase JAK1 (Homo sapiens) (UniProt P23458)
[40] = biological target: SRSF protein kinase 2 (Homo sapiens) (UniProt P78362)
[41] = biological target: Cyclin-dependent kinase 16 (Homo sapiens) (UniProt Q00536)
Chain of Cyclin-dependent kinase 16 (Homo sapiens) (Q00536 whole entry): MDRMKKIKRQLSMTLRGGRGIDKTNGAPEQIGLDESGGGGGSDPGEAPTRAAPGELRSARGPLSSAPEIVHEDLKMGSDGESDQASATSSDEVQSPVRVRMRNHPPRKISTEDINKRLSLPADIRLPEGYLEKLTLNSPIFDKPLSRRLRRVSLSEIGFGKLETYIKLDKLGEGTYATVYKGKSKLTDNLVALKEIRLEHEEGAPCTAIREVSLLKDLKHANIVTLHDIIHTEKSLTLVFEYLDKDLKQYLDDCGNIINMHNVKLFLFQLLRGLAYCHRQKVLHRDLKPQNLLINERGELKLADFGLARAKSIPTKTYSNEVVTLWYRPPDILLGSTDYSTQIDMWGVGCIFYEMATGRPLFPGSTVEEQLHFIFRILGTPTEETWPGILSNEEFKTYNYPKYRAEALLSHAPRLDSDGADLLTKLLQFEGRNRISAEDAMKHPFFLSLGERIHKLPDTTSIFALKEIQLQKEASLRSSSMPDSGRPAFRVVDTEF

[42] = biological target: G protein-coupled receptor kinase 4 (Homo sapiens) (UniProt P32298)
[43] = biological target: Serine/threonine-protein kinase RIO1 (Homo sapiens) (UniProt Q9BRS2)
[44] = biological target: Casein kinase II subunit alpha (Homo sapiens) (UniProt P68400)
[45] = biological target: Rhodopsin kinase GRK7 (Homo sapiens) (UniProt Q8WTQ7)
[46] = Compound concentration 100.0 nM
[47] = Compound concentration 1000.0 nM

Chain of Megakaryocyte-associated tyrosine-protein kinase (Homo sapiens) (P42679 whole entry): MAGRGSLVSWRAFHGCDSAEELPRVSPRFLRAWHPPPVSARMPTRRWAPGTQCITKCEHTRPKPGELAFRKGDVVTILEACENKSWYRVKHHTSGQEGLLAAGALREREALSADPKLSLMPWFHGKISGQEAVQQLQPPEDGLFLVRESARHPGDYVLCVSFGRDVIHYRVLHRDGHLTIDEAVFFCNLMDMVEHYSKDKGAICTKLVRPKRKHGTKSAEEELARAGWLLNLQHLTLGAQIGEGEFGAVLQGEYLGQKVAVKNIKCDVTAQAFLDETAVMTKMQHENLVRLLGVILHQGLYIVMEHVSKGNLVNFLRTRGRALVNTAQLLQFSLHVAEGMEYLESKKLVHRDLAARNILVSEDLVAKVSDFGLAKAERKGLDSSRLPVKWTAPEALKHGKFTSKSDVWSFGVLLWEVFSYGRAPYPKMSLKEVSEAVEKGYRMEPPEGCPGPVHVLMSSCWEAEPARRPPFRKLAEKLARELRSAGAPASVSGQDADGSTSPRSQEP

C[C@H](c1ccnc(Nc2nc3ccc(-c4cc(N(C)C)ncn4)cc3[nH]2)c1)N1CCN(C(=O)CC(F)(F)F)CC1 [BAY-985]
residual activity [1, 46]: 32% | residual activity [2, 46]: 95% | residual activity [3, 46]: 95% | residual activity [4, 46]: 100% | residual activity [5, 46]: 100% | residual activity [6, 46]: 97% | residual activity [7, 46]: 88% | residual activity [8, 46]: 89% | residual activity [9, 46]: 100% | residual activity [10, 46]: 100% | residual activity [11, 46]: 100% | residual activity [12, 46]: 95% | residual activity [13, 46]: 31% | residual activity [14, 46]: 100% | residual activity [15, 46]: 8.5% | residual activity [16, 46]: 100% | residual activity [17, 46]: 100% | residual activity [18, 46]: 97% | residual activity [19, 46]: 93% | residual activity [20, 46]: 100% | residual activity [21, 46]: 97% | residual activity [22, 46]: 100% | residual activity [23, 46]: 93% | residual activity [24, 46]: 87% | residual activity [25, 46]: 100% | residual activity [26, 46]: 59% | residual activity [27, 46]: 100% | residual activity [28, 46]: 100% | residual activity [29, 46]: 100% | residual activity [30, 46]: 100% | residual activity [31, 46]: 94% | residual activity [32, 46]: 100% | residual activity [33, 46]: 100% | residual activity [34, 46]: 85% | residual activity [35, 46]: 100% | residual activity [36, 46]: 100% | residual activity [37, 46]: 100% | inhibition [38]: 11.9% | residual activity [39, 46]: 92% | residual activity [40, 46]: 100% | residual activity [41, 46]: 100% | residual activity [42, 46]: 100% | residual activity [43, 46]: 100% | residual activity [44, 46]: 100% | residual activity [45, 46]: 89%

CN(C)c1ncnc(-c2ccc3nc(Nc4cc(CN5CCN(C(=O)CC(F)(F)F)CC5)ccn4)[nH]c3c2)c1Cl [BAY-440]
residual activity [1, 47]: 7% | residual activity [2, 47]: 93% | residual activity [3, 47]: 69% | residual activity [4, 47]: 100% | residual activity [5, 47]: 86% | residual activity [6, 47]: 88% | residual activity [7, 47]: 63% | residual activity [8, 47]: 97% | residual activity [9, 47]: 100% | residual activity [10, 47]: 44% | residual activity [11, 47]: 100% | residual activity [12, 47]: 85% | residual activity [13, 47]: 96% | residual activity [14, 47]: 95% | residual activity [15, 47]: 1.8% | residual activity [16, 47]: 100% | residual activity [17, 47]: 100% | residual activity [18, 47]: 100% | residual activity [19, 47]: 100% | residual activity [20, 47]: 100% | residual activity [21, 47]: 100% | residual activity [22, 47]: 100% | residual activity [23, 47]: 88% | residual activity [24, 47]: 44% | residual activity [25, 47]: 100% | residual activity [26, 47]: 50% | residual activity [27, 47]: 100% | residual activity [28, 47]: 74% | residual activity [29, 47]: 44% | residual activity [30, 47]: 100% | residual activity [31, 47]: 73% | residual activity [32, 47]: 69% | residual activity [33, 47]: 43% | residual activity [34, 47]: 51% | residual activity [35, 47]: 100% | residual activity [36, 47]: 100% | residual activity [37, 47]: 100% | inhibition [38]: 12.8% | residual activity [39, 47]: 93% | residual activity [40, 47]: 76% | residual activity [41, 47]: 74% | residual activity [42, 47]: 100% | residual activity [43, 47]: 100% | residual activity [44, 47]: 80% | residual activity [45, 47]: 90%

— ChEMBL document CHEMBL4507318, “Data for DCP probe BAY-985” (2021)
